Values joined by “and” are separate entries in the source; they are usually repeats but may differ in a detail not shown here. Identical values can stand only once. Where a SMILES comes first, the peptide text is derived from it. Bridges are numbered along the chain shown (N, C = ends). Roman numbers before positions name the chains, in order.
Key:
TNF-α = experiment: Plasma TNF-α in mouse carrageenan DIC model (ELISA); type: in vivo, mouse (CD-1); conditions: 1 mg (245 nmol) i.p. 18 h before carrageenan, over 24 h, groups of 5 mice
Experimental: (§1) Groups of 10 male CD-1 mice were injected i.p. with 0.25 ml of either vehicle (PBS) or peptide in vehicle at varying times prior to the i.p. injection of 1.0 ml of carrageenan (0.45% [w/v] in PBS; Sigma). In experiments where serum cytokine levels were determined, groups of 5 mice were euthanized at 1-, 2-, 4-, 8-, and 24-h post injection of carrageenan, blood collected by cardiac puncture into heparinized syringes, and the resultant plasma stored at −80°C until assayed by ELISA. […] At 1-, 2-, 4-, and 24-h post injection of carrageenan, five mice from each group were euthanized and heparinized blood samples collected from the heart using heparinized syringes for subsequent determinations of WBC (white blood cell) counts, RBC (red blood cell) counts, or PLT (platelet) counts.
(§2) Cytokine measurements of serum samples from MN10021-treated mice were performed by sandwich ELISA assays (R & D systems) according to the manufacturer’s instructions for use of its kits with sera samples.

IL-6 = experiment: Plasma IL-6 in mouse carrageenan DIC model (ELISA); type: in vivo, mouse (CD-1); conditions: 1 mg (245 nmol) i.p. 18 h before carrageenan, peak at 4 h
Experimental: as §1, §2

dermal vascular leak = experiment: Reverse passive Arthus reaction, dermal vascular leak; type: in vivo, guinea pig (Hartley)
Experimental: Eighteen hours later both flanks of the animals were shaved and 6.25 or 12.5 µl of rabbit anti-BSA antiserum was injected intradermally (i.d.) at two sites, one on each flank. The animals were then injected i.v. with 1 ml of PBS containing BSA (1 mg/ml) and Evans Blue dye (2 mg/ml; Sigma; St. Louis, MO). Six hours later the animals were euthanized, the skin removed, and the level of induration determined as the diameter (mm) of the extravasation for each site measured on the ventral surface of the skin.

systolic blood pressure = experiment: SHR rat hypertension model (tail cuff); type: in vivo
Experimental: As part of a general pharmacological screen, MN10021 was evaluated in a rat model of hypertension by MDS-PanLabs (Bothell, WA). […] Blood pressure measurements were made by tail cuff at 1, 2, and 4 h post administration of test compounds. A decrease of ≥10% of the baseline systolic blood pressure is considered significant in this assay.

[1] = system: iNOS (inducible nitric oxide synthase) mRNA; experiment: RT-PCR of iNOS mRNA in HUVEC; type: cell-based, human; conditions: 50 µM peptide, 3 h, 37°C, quiescent HUVEC, RT-PCR
Experimental: Cells were cultured with various concentrations of test materials, either with or without stimulus, for varying times. The cells were collected, washed and total RNA isolated using the RNeasy Mini Kit (Qiagen; Valencia, CA). Following isolation the RNA was treated with 7 units of DNase I according to the RNase-Free DNase Set (Qiagen; Valencia, CA) protocol. Using these procedures we usually obtained ∼50 µg of total RNA/10^7 cells. cDNA was prepared from the isolated mRNAs and RT-PCR performed on the target cytokines/chemokines/growth factors using appropriate primer pairs and a control primer pair for β-actin (all from R & D Systems; Minneapolis, MN). RT-PCR was generally performed for 30 cycles for β-actin and 35–45 cycles for iNOS and VEGF.

[2] = 100 mg/kg orally (gavage), groups of 3 SHR rats, tail cuff, vs 0 h value

In the case of `CC(C)C[C@H](NC(=O)CNC(=O)CNC(=O)[C@H](CCC(=O)O)NC(=O)[C@H](CCCCN)NC(=O)[C@H](CC(C)C)NC(=O)[C@H](Cc1ccccc1)NC(=O)[C@H](CC(C)C)NC(=O)[C@H](CC(C)C)NC(=O)[C@H](CC(=O)O)NC(=O)[C@H](CC(C)C)NC(=O)CNC(=O)[C@H](CCCNC(=N)N)NC(=O)[C@H](CCCNC(=N)N)NC(=O)[C@H](CC(N)=O)NC(=O)[C@H](CCC(N)=O)NC(=O)[C@@H](N)CC(C)C)C(=O)N[C@@H](CSSC[C@H](NC(=O)[C@H](CC(C)C)NC(=O)CNC(=O)CNC(=O)[C@H](CCC(=O)O)NC(=O)[C@H](CCCCN)NC(=O)[C@H](CC(C)C)NC(=O)[C@H](Cc1ccccc1)NC(=O)[C@H](CC(C)C)NC(=O)[C@H](CC(C)C)NC(=O)[C@H](CC(=O)O)NC(=O)[C@H](CC(C)C)NC(=O)CNC(=O)[C@H](CCCNC(=N)N)NC(=O)[C@H](CCCNC(=N)N)NC(=O)[C@H](CC(N)=O)NC(=O)[C@H](CCC(N)=O)NC(=O)[C@@H](N)CC(C)C)C(=O)O)C(=O)O` [MN10021] (I: H-LQNRRGLDLLFLKEGGLC-OH / II: H-LQNRRGLDLLFLKEGGLC-OH; disulfide I:18-II:18), the “block of carrageenan-induced increase in plasma TNF-α” value (TNF-α) is reported as ~85% and > 80%, the “block of peak plasma IL-6 response” value (IL-6) is reported as “about 50%” and the “block of vascular leak, challenge 6.25 µl anti-BSA” value (dermal vascular leak; 250 or 500 µg s.c. 18 h before challenge, Evans Blue extravasation diameter at 6 h) is reported as “completely blocked”. The “block of vascular leak, challenge 12.5 µl anti-BSA” value (dermal vascular leak; only the highest dose (500 µg) s.c. 18 h before challenge, Evans Blue extravasation at 6 h) was “completely blocked”, the “decreases in blood pressure at the three time points (1, 2, 4 h)” value (systolic blood pressure; 30 mg/kg orally, data not shown) was 3–4% and the “decrease in blood pressure at 1 h” value (systolic blood pressure; [2]) was 12%. For the same compound, the “decrease in blood pressure at 2 h” value (systolic blood pressure; [2]) was 15%, the “decrease in blood pressure at 4 h” value (systolic blood pressure; [2]) was 13% and the “lowering of blood pressure within 1 h” value (systolic blood pressure; orally-administered (abstract)) was 10–15%. For the same compound, the “induction of mRNA for iNOS in HUVEC” value [1] was “induces mRNA for iNOS”.

Source: PMC3527569, “Anti-Inflammatory and Vasoprotective Activity of a Retroviral-Derived Peptide, Homologous to Human Endogenous Retroviruses: Endothelial Cell Effects” (PLoS ONE, 2012)
